# From patent publication US10001483B2, “Methods for the treatment of Kaposi's sarcoma or KSHV-induced lymphoma using immunomodulatory compounds, and uses of biomarkers” (Celgene Corporation, priority 2015, dated 2018)
# Legend:
# [1] = Safety and tolerability of pomalidomide in KS patients; format: in vivo, human
# Experimental: Aspirin at 81 mg daily was administered as thromboprophylaxis. Assessments were performed every 4 weeks for lymphocyte numbers, Kaposi sarcoma associated herpesvirus (KSHV/HHV8) viral load (VL) and HIV VL and at 8 weeks for T cell subsets and activation by immunophenotyping of peripheral blood mononuclear cells (PBMC). KSHV VL in PBMC and HIV VL in plasma were assayed by quantitative PCR; an ultrasensitive single copy assay was used for HIV VL. Changes from baseline were evaluated using the Wilcoxon signed rank test with P<0.005 considered significant given multiple comparisons. Differences in changes between the HIV infected and uninfected groups were evaluated using the Wilcoxon rank sum test. Median time of the patients on therapy 7 cycles (range 2-12).
# Subsequent cycles commenced on day 29. In certain cases cycles were commenced when ANC was ≥1000 cells/mm3, hemoglobin≥10 g/dL, platelets≥50,000 cells/mm3 and otherwise held until these thresholds were met. […] HIV-infected patients continued baseline ART without adjustment. Prophylaxis for opportunistic infections including Pneumocystis jiroveci was administered following current guidelines.
# [2] = tested on: KSHV-infected PEL lines (BC-3, BCBL-1, JSC-1, BC-1); assay: Cell viability (Trypan Blue or CellTiter-Glo) in KSHV-infected PEL cell lines; format: cell-based; settings: among thalidomide, lenalidomide, pomalidomide, FIGS. 2A-2D
# Experimental: (§1) In addition, the effect of the immunomodulatory drugs on KSHV down-regulation of MHC-1 during lytic activation was investigated by FACS analysis after pretreating the cells with Immunomodulatory drugs prior to lytic activation with butyrate.
# Cell Viability: Cells were plated in triplicate at a density of 30,000-60,000 cells per well in 96-well plates. Cell lines were kept separate on different plates. Cell viability after indicated treatments were assayed by Trypan Blue or by adding the CellTiter-Glo reagent to measure the total ATP in cells cultured with serum-supplemented medium. For the latter, the corresponding luminescence values, correlated to the number of cells, were measured using a luminometer. The values for percentage of living cells were normalized to the control.
# Cell Culture: The PEL lines JSC-1 (John Hopkins University, Baltimore, Md.), dually infected with Epstein-Barr virus (EBV) and HHV-8, and BC-3 (ATCC, Rockville, Md.) and BCBL-1(National Institute of Health AIDS Research and Reagent Program, Rockville, Md.), harboring KSHV only, and CA-46, an uninfected cancerous B-cell line, were grown in RPMI 1640 medium (Invitrogen, Carlsbad, Calif.) supplemented with 15% fetal-bovine serum (FBS) (Thermo Scientific, Rockford, Ill.) and Pen/Strep glutamine at 37° C. with 5% CO2.
# MHC-1 [3] = assay: Butyrate induced (lytic KSHV activation) MHC-1 down-regulation in BCBL-1 cells, FACS and Western blot; format: cell-based; settings: pretreatment 24 h before butyrate
# Experimental: as §1
# Flow Cytometry Analysis and Antibodies: For flow cytometry analysis of MHC-I expression, cells were plated at 400,000 cells/mL and pretreated with immunomodulatory agents as indicated. After twenty-four hours, cells were treated with butyrate at indicated amounts to induce lytic activation and down-regulation of MHC-I. After another twenty-four hours, cells were analyzed on FACS and extracts were prepared as indicated. For flow cytometry analysis, the cells, 1×105 per sample, were incubated with indicated conjugated monoclonal antibodies for 30 min at 4° C. After washing twice with PBS, cells were resuspended in PBS and flow cytometry analysis was performed with a FACSCalibur. FITC-conjugated antibodies to anti-HLA MHC Class I (Sigma-Aldrich) and PE-conjugated antibodies to anti-DR MHC Class II (BioLegend) were used for flow cytometry.
# MHC-1 [4] = assay: K3/K5 mediated MHC-1 down-regulation in K3 or K5 transfected KSHV-negative BJAB cells; format: cell-based
# Experimental: FIGS. 9A-9E. […] 24 hours after electroporation, FACS analysis was done using half of the cells. […] The remaining cells were subjected to lysis, protein extraction, and western blot. Blots were probed with antibodies to the indicated proteins.
# [5] = 5 mg per day for 21 days of 28 day cycles
compound,measurement,setting,value
"Nc1cccc2c1C(=O)N(C1CCC(=O)NC1=O)C2=O (stereo not drawn) [pomalidomide, 4-amino-2-(2,6-dioxopiperidin-3-yl)isoindoline-1,3-dione]","adverse events, severity",[1]; [5],"generally mild, self limited, or reversible following therapy"
same,dose limiting events,[1]; [5],No dose limiting events
same,tolerability,[1]; both cohorts,well tolerated
same,cessation of therapy for adverse effect,[1]; exacerbation of pre-existing anxiety,One subject ceased therapy for adverse effect
same,common adverse events,"[1]; generally mild and self-limited, or resolved following cessation of therapy","neutropenia, constipation, anemia not requiring transfusion, fatigue, and rash"
same,"unplanned hospitalizations, febrile neutropenia, thromboembolic events",[1]; with aspirin 81 mg daily thromboprophylaxis,"No unplanned hospitalizations, no febrile neutropenia, and no thromboembolic events"
same,cell viability / PEL proliferation,[2],most effective one at killing KSHV infected cells
same,down-regulation of MHC Class I expression upon lytic KSHV activation,MHC-1 [3]; FIGS. 7A-7C and FIG. 8,inhibits MHC-1 down-regulation
same,down-regulation of MHC Class I expression upon lytic KSHV activation,"MHC-1 [3]; FIGS. 7A-7C and FIG. 8, listed as Pomalidomide",substantially more effective at preventing the down-regulation
same,down-regulation of MHC-1 by plasmids encoding K3 or K5,MHC-1 [4]; 10 μM for 48 hours before electroporation,prevented
same,"prevention of MHC I knockdown, FACS analysis with K5","MHC-1 [4]; 10 μM for 48 hours, GFP-positive cells",not consistently observed
same,"MHC I knockdown, western blots","MHC-1 [4]; 10 μM for 48 hours, K3 or K5 plasmids",preventing MHC I knockdown
